Test results reported in patent publication US11254640B2, “N-substituted indoles and other heterocycles for treating brain disorders” (The Regents of the University of California, priority 2019, dated 2022).
Where two headings read alike, the source gives them in different places.

How the values were obtained:
Type in all cases: cell-based
[1] = test system: 5HT2A sensor; assay: 5HT2A sensor assay, antagonist mode (sLight1.3s HEK293T stable line); settings: relative to 5-HT at 100 nM; for 5HT2A Antagonist mean @ 100 nM (%): 100 nM compound; for 5HT2A Antagonist mean @ 10 μM (%): 10 μM compound; for 5HT2A Antagonist mean @ 100 μM (%): 100 μM compound
Summary of the method: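 Inactivation score is computed from membrane dFF as (dFF(compound+5HT)−dFF(5HT))/dFF(5HT), with HBSS-only fluorescence as Fapo. Final concentrations: 5-HT 100 nM added first, then compound at 100 nM, 10 μM or 100 μM in 0.1% DMSO. Triplicates; FITC imaging, 5 fields per well.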

[2] = biological target: T1, 5HT2A (Homo sapiens, UniProt P28223); assay: Calcium flux assay (Calcium secondary messenger pathway); settings: agonist mode
T1 construct: expressed in transfected cells
Description: Calcium Flux Assay. Calcium Secondary Messenger Pathway. The Calcium No Wash^PLUS assay monitors the activation of a GPCR (e.g., 5HT2A) via Gq secondary messenger signaling in a live cell, non-imaging assay format. Calcium mobilization in PathHunter® cell lines or other cell lines stably expressing Gq-coupled GPCRs (e.g., 5HT2A) is monitored using a calcium-sensitive dye that is loaded into cells. GPCR (e.g., 5HT2A) activation by a compound results in the release of calcium from intracellular stores and an increase in dye fluorescence that is measured in real-time. In some embodiments, the ability of a compound of the present invention to modulate 5-HT2A function is determined using a calcium flux assay. In some embodiments, a compound of the present invention activates a calcium flux assay.
Calcium Secondary Messenger Pathway. Cell lines were expanded from freezer stocks according to standard procedures. Cells were seeded in a total volume of 20 μL into black-walled, clear-bottom, Poly-D-lysine coated 384-well microplates and incubated at 37° C. for the appropriate time prior to testing. Assays were performed in 1× Dye Loading Buffer consisting of 1× Dye, 1× Additive A and 2.5 mM Probenecid in HBSS/20 mM Hepes. Probenicid was prepared fresh. Cells were loaded with dye prior to testing. Media was aspirated from cells and replaced with 20 μL Dye Loading Buffer. Cells were incubated for 30-60 minutes at 37° C.
For agonist determination, cells were incubated with sample to induce response. After dye loading, cells were removed from the incubator and 10 μL HBSS/20 mM Hepes was added. 3× vehicle was included in the buffer when performing agonist dose curves to define the EC80 for subsequent antagonist assays. Cells were incubated for 30 minutes at room temperature in the dark to equilibrate plate temperature. Intermediate dilution of sample stocks was performed to generate 4× sample in assay buffer. Compound agonist activity was measured on a FLIPR Tetra (MDS). Calcium mobilization was monitored for 2 minutes and 10 μL 4× sample in HBSS/20 mM Hepes was added to the cells 5 seconds into the assay.
Compound activity was analyzed using CBIS data analysis suite (ChemInnovation, CA). For agonist mode assays, percentage activity is calculated using the following formula: % Activity=100%×(mean RFU of test sample−mean RFU of vehicle control)/(mean MAX RFU control ligand−mean RFU of vehicle control).

[3] = test system: 5HT2A sensor; assay: 5HT2A sensor assay, agonist mode (sLight1.3s HEK293T stable line); settings: percent relative to 5-HT at 100 uM; for 5HT2A Agonist mean @ 100 nM (%): 100 nM compound; for 5HT2A Agonist mean @ 10 μM (%): 10 μM compound; for 5HT2A Agonist mean @ 100 μM (%): 100 μM compound
Summary of the method: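 Fluorescence change, dFF=(Fsat−Fapo)/Fapo, was taken from membrane images (460 nm excitation) before and after compound addition and scaled as % activation, with the DMSO mean as 0 and the 5HT mean as 100. The cells were sLight1.3s HEK293T in HBSS. Final compound levels were 100 μM, 10 μM and 100 nM in 0.1% DMSO, in triplicate.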

[4] = test system: rat cortical neurons; assay: Neurite outgrowth assay; settings: Cortical neurone, 1 hour treatment at DIV 4, analysed DIV 7, fold vs DMSO control
Description: Neurite outgrowth assay. Changes in the pattern of neurite outgrowth have been implicated in neurodegenerative disorders as well as traumatic injuries. The discovery of new compounds that can positively affect neuritogenesis are important for developing new therapeutics for neurological diseases. Measurement of neurite outgrowth of rat cortical neurons using an automated image-based assay was used to determine the neuroplastic effects of the compounds of the present invention. In some embodiments, a compound of the present invention increases the pattern of neurite outgrowth. In some embodiments, a compound of the present invention increases neurite average length compared to a control. In some embodiments, a compound of the present invention increases neurite branch points compared to a control. In some embodiments, a compound of the present invention increases neurite average length and neurite branch points compared to a control.
Neurite Outgrowth Assay. Rat cortical neurons (20,000 cells/well) were freshly isolated from embryonic day 18 rats and cultured in Neurobasal Medium (+B27). The cultured cells were plated in 96 well-plates (avoiding external wells). At DIV 4, the neurons were treated with compound or control (10 μM) for 1 hour followed by complete washout of the compound. At DIV 7, the neurons were analyzed. The experiments were performed in triplicate. Neurite outgrowth was measured analyzing the following parameters: Number of Cell Bodies, total neurite length (pixels), Root Count, Segments, Extremities Count and node points. Changes in the pattern of neurite outgrowth of the neurons were analyzed by immunocytochemistry against β-III-tubulin. Pictures were acquired by the CellInsight CX7 from Thermo Fisher and analyzed using its software. Results generated in the equipment were maximum neurite length, extremity count, root count, dendrite branch points, and total neurite length. The results were compared to DMSO control, representing the fold-change in neuronal outgrowth.

[5] = read-out: Neurite Average Length @ 10 μM
[6] = read-out: Neurite Branch Points: @ 10 μM

T1 sequence (P28223 whole entry): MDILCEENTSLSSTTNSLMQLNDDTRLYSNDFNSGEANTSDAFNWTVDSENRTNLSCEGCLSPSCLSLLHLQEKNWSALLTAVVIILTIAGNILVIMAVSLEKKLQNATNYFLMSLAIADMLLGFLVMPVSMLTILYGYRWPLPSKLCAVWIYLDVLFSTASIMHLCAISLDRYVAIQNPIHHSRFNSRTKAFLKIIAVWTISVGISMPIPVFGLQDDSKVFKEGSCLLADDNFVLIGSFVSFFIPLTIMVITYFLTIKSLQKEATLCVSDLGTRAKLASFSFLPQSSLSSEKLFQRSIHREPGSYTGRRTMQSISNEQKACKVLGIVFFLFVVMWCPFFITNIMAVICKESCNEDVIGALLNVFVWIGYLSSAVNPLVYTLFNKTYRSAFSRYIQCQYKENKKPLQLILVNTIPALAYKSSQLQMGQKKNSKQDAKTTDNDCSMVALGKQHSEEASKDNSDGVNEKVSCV

Compound | 5HT2A Antagonist mean @ 100 nM (%) [1] | 5HT2A Antagonist mean @ 10 μM (%) [1] | 5HT2A Antagonist mean @ 100 μM (%) [1] | EC50 [2] | 5HT2A Agonist mean @ 100 nM (%) [3] | 5HT2A Agonist mean @ 10 μM (%) [3] | 5HT2A Agonist mean @ 100 μM (%) [3] | fold induction at 10 µM [4, 5] | fold induction at 10 µM [4, 6]
COc1cc(C)c2c(ccn2C[C@@H](C)N(C)C)c1 [Example 65, (R)-1-(5-methoxy-7-methyl-1H-indol-1-yl)-N,N-dimethylpropan-2-amine] | C (inhibits 5HT response by <75%) | A (inhibits 5HT response by >100%) | A (inhibits 5HT response by >100%) | > 10 µM | B (does not activate 5HT2A sensor assay in agonist mode) | B (does not activate 5HT2A sensor assay in agonist mode) | B (does not activate 5HT2A sensor assay in agonist mode) | 1.5 to 3 | 1.5 to 3
C[C@H](Cn1ccc2c(F)c(F)ccc21)N(C)C [Example 67, (R)-1-(4,5-difluoro-1H-indol-1-yl)-N,N-dimethylpropan-2-amine] | A (inhibits 5HT response by >100%) | A (inhibits 5HT response by >100%) | A (inhibits 5HT response by >100%) | > 10 µM | B (does not activate 5HT2A sensor assay in agonist mode) | B (does not activate 5HT2A sensor assay in agonist mode) | B (does not activate 5HT2A sensor assay in agonist mode) | 1.5 to 3 | > 3
C[C@H](Cn1ccc2cc(F)c(F)cc21)N(C)C [Example 68, (R)-1-(5,6-difluoro-1H-indol-1-yl)-N,N-dimethylpropan-2-amine] | B (inhibits 5HT response by 75% to 100%) | A (inhibits 5HT response by >100%) | A (inhibits 5HT response by >100%) | > 10 µM | B (does not activate 5HT2A sensor assay in agonist mode) | B (does not activate 5HT2A sensor assay in agonist mode) | A (activates 5HT2A sensor assay in agonist mode) | 1.5 to 3 | > 3
C[C@H](Cn1ccc2cc(F)cc(F)c21)N(C)C [Example 69, (R)-1-(5,7-difluoro-1H-indol-1-yl)-N,N-dimethylpropan-2-amine] | B (inhibits 5HT response by 75% to 100%) | B (inhibits 5HT response by 75% to 100%) | B (inhibits 5HT response by 75% to 100%) | > 10 µM | B (does not activate 5HT2A sensor assay in agonist mode) | B (does not activate 5HT2A sensor assay in agonist mode) | A (activates 5HT2A sensor assay in agonist mode) | 1.5 to 3 | > 3
COc1cc2c(ccn2C[C@@H](C)N(C)C)cc1F [Example 70, (R)-1-(5-fluoro-6-methoxy-1H-indol-1-yl)-N,N-dimethylpropan-2-amine] | B (inhibits 5HT response by 75% to 100%) | B (inhibits 5HT response by 75% to 100%) | A (inhibits 5HT response by >100%) | < 10 µM | B (does not activate 5HT2A sensor assay in agonist mode) | B (does not activate 5HT2A sensor assay in agonist mode) | B (does not activate 5HT2A sensor assay in agonist mode) | 1.5 to 3 | 1.5 to 3
Cc1cc2cc(F)ccc2n1C[C@@H](C)N(C)C [Example 73, (R)-1-(5-fluoro-2-methyl-1H-indol-1-yl)-N,N-dimethylpropan-2-amine] | B (inhibits 5HT response by 75% to 100%) | B (inhibits 5HT response by 75% to 100%) | A (inhibits 5HT response by >100%) | > 10 µM | B (does not activate 5HT2A sensor assay in agonist mode) | B (does not activate 5HT2A sensor assay in agonist mode) | A (activates 5HT2A sensor assay in agonist mode) | 1.5 to 3 | 1.5 to 3
Cc1cn(C[C@@H](C)N(C)C)c2ccc(F)cc12 [Example 74, (R)-1-(5-fluoro-3-methyl-1H-indol-1-yl)-N,N-dimethylpropan-2-amine] | A (inhibits 5HT response by >100%) | A (inhibits 5HT response by >100%) | B (inhibits 5HT response by 75% to 100%) | > 10 µM | B (does not activate 5HT2A sensor assay in agonist mode) | B (does not activate 5HT2A sensor assay in agonist mode) | B (does not activate 5HT2A sensor assay in agonist mode) | 1.5 to 3 | 1.5 to 3
CC[C@H](Cn1ccc2cc(OC)ccc21)N(C)C [Example 75, (R)-1-(5-methoxy-1H-indol-1-yl)-N,N-dimethylbutan-2-amine] | A (inhibits 5HT response by >100%) | A (inhibits 5HT response by >100%) | A (inhibits 5HT response by >100%) | > 10 µM | B (does not activate 5HT2A sensor assay in agonist mode) | B (does not activate 5HT2A sensor assay in agonist mode) | B (does not activate 5HT2A sensor assay in agonist mode) | < 1.5 | < 1.5
CC[C@@H](Cn1ccc2cc(OC)ccc21)N(C)C [Example 76, (S)-1-(5-methoxy-1H-indol-1-yl)-N,N-dimethylbutan-2-amine] | A (inhibits 5HT response by >100%) | A (inhibits 5HT response by >100%) | A (inhibits 5HT response by >100%) | > 10 µM | B (does not activate 5HT2A sensor assay in agonist mode) | B (does not activate 5HT2A sensor assay in agonist mode) | B (does not activate 5HT2A sensor assay in agonist mode) | 1.5 to 3 | 1.5 to 3
